Here are results for nine molecules from patent US8575156B2, “Cyclic inhibitors of 11β-hydroxysteroid dehydrogenase 1” (Vitae Pharmaceuticals, Inc., priority 2007, dated 2013).

The target in experiment [1] is T1, 11β-HSD1 (Homo sapiens, UniProt P28845). As to conditions: Biological Test Example 1; 100 nM; 0.1 µM.
Experiment [2] addresses T1, 11β-HSD1. The experiment is described as follows: biochemical. The note with it: IC50 Range, Biological Test Example 1; microsomes from CHO cells overexpressing human 11β-HSD1.

T1 sequence (P28845 whole entry): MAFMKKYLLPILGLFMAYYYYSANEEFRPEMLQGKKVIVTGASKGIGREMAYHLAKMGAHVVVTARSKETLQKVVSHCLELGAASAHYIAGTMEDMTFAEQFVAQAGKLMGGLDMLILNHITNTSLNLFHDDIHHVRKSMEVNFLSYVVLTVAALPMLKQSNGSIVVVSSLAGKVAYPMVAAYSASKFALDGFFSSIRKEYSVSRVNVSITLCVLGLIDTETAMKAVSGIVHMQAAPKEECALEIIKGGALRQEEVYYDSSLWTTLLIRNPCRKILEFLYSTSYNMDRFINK

Turning to `COc1ccc([C@H](C)N2CCC(CCCO)(C(C)C)OC2=O)cc1` (single isomer, unassigned) [EXAMPLE 332 Isomer 1], in experiment [1], the “Average % inhibition at 100 nM” value amounted to 97.8%. The IC50 in experiment [2] is less than 100 nM.

With `COc1ccc([C@H](C)N2CCC(CCCO)(C(C)C)OC2=O)cc1` (single isomer, unassigned) [EXAMPLE 332 Isomer 2], the “Average % inhibition at 100 nM” value in experiment [1] was 32.2%. Further, the 50% inhibitory concentration (IC50) in experiment [2] is greater than 100 nM.

Regarding `COc1ccc([C@H](C)N2CCC(CCC(N)=O)(C(C)C)OC2=O)cc1` (single isomer, unassigned) [EXAMPLE 333 Isomer 1], the “Average % inhibition at 100 nM” value in experiment [1] came to 96.2%. In experiment [2], the concentration for half-maximal inhibition (IC50) was less than 100 nM.

For `COc1ccc([C@H](C)N2CCC(CCC(N)=O)(C(C)C)OC2=O)cc1` (single isomer, unassigned) [EXAMPLE 333 Isomer 2], in experiment [1], the “Average % inhibition at 100 nM” value is 9.1%. This molecule came in with an IC50 in experiment [2] greater than 100 nM.

With `CC(C)C1(CCC(N)=O)CCN([C@@H](C)c2ccc(Cl)cc2)C(=O)O1` (single isomer, unassigned) [EXAMPLE 334 Isomer 1], the “Average % inhibition at 100 nM” value in experiment [1] amounted to 96.6%. Also, the IC50 in experiment [2] was less than 100 nM.

In the case of `CC(C)C1(CCC(N)=O)CCN([C@@H](C)c2ccc(Cl)cc2)C(=O)O1` (single isomer, unassigned) [EXAMPLE 334 Isomer 2], in experiment [1], the “Average % inhibition at 100 nM” value is reported as 31.9%. The molecule also returned an IC50 in experiment [2] greater than 100 nM.

With `C[C@@H](c1ccc(Br)cc1)N1CCC(CCCO)(C(C)(C)C)OC1=O` (single isomer, unassigned) [EXAMPLE 335 Isomer 1], the “Average % inhibition at 100 nM” value in experiment [1] stood at 48.2%. The molecule further gave a 50% inhibitory concentration (IC50) in experiment [2] of less than 100 nM.

`C[C@@H](c1ccc(-c2ccc(F)cc2F)cc1)N1CCC(CCO)(C(C)(C)C)OC1=O` (single isomer, unassigned) [EXAMPLE 336 Isomer 1]: the “Average % inhibition at 100 nM” value in experiment [1] turned out to be 50.8%. Also, in experiment [2], the IC50 is less than 100 nM.

Consider `C[C@@H](c1ccc(Br)cc1)N1CCC(CCO)(c2ccc(F)cc2F)OC1=O` (single isomer, unassigned) [EXAMPLE 365 Isomer 1], for which the “Average % inhibition at 100 nM” value in experiment [1] amounted to 97.5%. For the same molecule, the half-inhibitory concentration (IC50) in experiment [2] was less than 100 nM.
